# Data: patent publication US20260077055A1, “COMPOSITIONS OF POLYPLEXES AND SAPONINS” (SAPREME TECHNOLOGIES B.V., priority 2022, published 2026)
# System: HEK293FT cells
# Experiment: pEGFP-N3 polyplex transfection of HEK293FT cells, live cell imaging
# Type: cell-based
# Method: Spectrophotometry: Concentrations were determined using either a Thermo Nanodrop 2000 spectrometer or Perkin Elmer Lambda 365 Spectrophotometer. DLS measurements: DLS measurements were performed on a Malvern Nano ZS (Malvern Instruments, U.K.), operating at 633 nm with a 173° scattering angle, at 25 or 37° C. DLS mean diameters were obtained from the intensity particle size distribution provided by Malvern Zetasizer Software. DLS histograms were obtained from the intensity particle size distributions. Zeta-potential: The zeta-potential values of the polyplexes were obtained by laser doppler anemometry (LDA), measuring the mean electrophoretic mobility (Malvern Zetasizer Nano ZS, Malvern Instruments, U.K.). Measurements were performed in 10 mM HEPES pH 7.1, 150 mM NaCl. TEM measurements: TEM measurements were performed on a JEOL JEM-1011 operated at 100 kV electron microscope, equipped with a camera S5 MegaView G2. A drop of a solution of polyplexes (0.1 mg/mL) was settled on a PELCO® TEM carbon type-B film copper grid and allowed to dry at room temperature for 1 h. Infrared Spectroscopy: FT-IR spectra were recorded on a Bruker Vertex 70v, equipped with a RockSolid interferometer, after preparing the samples (1-2 mg) as KBr pellets. Spectra were processed using OPUS 7.8 software (Bruker). NMR Spectroscopy: 1H NMR spectra were recorded on a 11.7 T Bruker DRX-500 spectrometer. Chemical shifts are reported in ppm (o units) downfield from the HOD residual solvent peak (CD3OD). Experiments were recorded acquiring 64-512 scans, with a pre-scan delay (d1) of 12 s, and an acquisition time (aq) of 4 s at 300 K. 13C NMR spectrum was recorder on a 9.39 T Varian Innova 400 spectrometer. MestReNova 14.2 software (Mestrelab Research) was used for spectra processing. Cell culture conditions and treatments: HEK293FT, A431, A2058, Neuro2A, Hepa1-6 and MDA-MB 468 were maintained in 10% FBS-supplemented DMEM medium (PAN-Biotech GmbH, or Lonza Group, Basel, Switzerland)+Pen/Strep at 37° C. with 5% CO2. […]
smiles,measurement,setting,value
CC(=O)OC1C(C)OC(OC2C(C)OC(OC(=O)[C@]34CCC(C)(C)CC3C3=CCC5[C@@]6(C)CC[C@H](OC7OC(C(=O)O)C(O)C(OC8OCC(O)C(O)C8O)C7OC7OC(CO)C(O)C(O)C7O)[C@@](C)(/C=N/NC(=O)CCCCCN7C(=O)C=CC7=O)C6CC[C@@]5(C)[C@]3(C)C[C@H]4O)C(OC3OC(C)C(OC4OCC(O)C(OC5OC(CO)C(O)C(O)C5O)C4O)C(O)C3O)C2O)C(O)C1OC1OCC(O)C(O)C1O (stereo partly drawn) [SO1861-EMCH],pEGFP-N3 transfection (GFP expression),"40 pM or 120 pM pEGFP-N3, N/P 8, SO1861-EMCH = 4000 nM co-administered with PAMAM G5-(PEG N3)3.5 polyplexes",nearly all cells were transfected
same,toxicity (cell confluency),"40 pM or 120 pM pEGFP-N3 polyplexes, N/P 8, SO1861-EMCH = 4000 nM co-administered with PAMAM G5-(PEG N3)3.5 polyplexes",strong toxicity was observed
same,toxicity of SO1861-EMCH alone,"4000 nM, without polyplex (data not shown)",not toxic
